{"source": "patent US11406648B2", "about": "“C17-heteroaryl derivatives of oleanolic acid and methods of use thereof” (REATA PHARMACEUTICALS, INC., priority 2012, dated 2022)", "data": [{"tested_on": "RAW264.7 mouse macrophages", "experiment": "Suppression of IFNγ-induced NO production (Nitric Oxide Production and Cell Viability Assay)", "type": "cell-based", "settings": "IFNγ-induced NO production, Griess reagent, normalized to cell viability, 2 h pre-treatment, IFNγ 24 h", "protocol": "Assay results for the suppression of IFNγ-induced NO production are shown for several of the compounds of the present invention in Table 1 below. […] Details regarding this assay are provided in the Examples section below. Nitric Oxide Production and Cell Viability Assay. RAW264.7 mouse macrophages were plated in 96-well plates at 30,000 cells/well in triplicate in RPMI1640+0.5% FBS and incubated at 37° C. with 5% CO2. On the next day, cells were pre-treated with DMSO or drug (0-200 nM dose range) for 2 hours, and then treated with recombinant mouse IFNγ (R&D Systems) for 24 hours. Nitric Oxide concentration in media was determined using the Griess reagent system (Promega). Cell viability was determined using WST-1 reagent (Roche). IC50 values were determined based on the suppression of IFNγ induced Nitric Oxide production normalized to cell viability.", "units": {"IC50": "nM"}, "values": [{"smiles": "Cc1nnc([C@]23CCC(C)(C)C[C@H]2[C@H]2C(=O)C=C4[C@@]5(C)C=C(C#N)C(=O)C(C)(C)[C@@H]5CC[C@@]4(C)[C@]2(C)CC3)o1", "note": "[TX63384]", "IC50": 2}, {"smiles": "CCCc1nnc([C@]23CCC(C)(C)C[C@H]2[C@H]2C(=O)C=C4[C@@]5(C)C=C(C#N)C(=O)C(C)(C)[C@@H]5CC[C@@]4(C)[C@]2(C)CC3)o1", "note": "[TX63475]", "IC50": 5.7}, {"smiles": "CC(C)c1nnc([C@]23CCC(C)(C)C[C@H]2[C@H]2C(=O)C=C4[C@@]5(C)C=C(C#N)C(=O)C(C)(C)[C@@H]5CC[C@@]4(C)[C@]2(C)CC3)o1", "note": "[TX63476]", "IC50": 5.4}, {"smiles": "CC1(C)CC[C@]2(c3nnc(C4CC4)o3)CC[C@]3(C)[C@H](C(=O)C=C4[C@@]5(C)C=C(C#N)C(=O)C(C)(C)[C@@H]5CC[C@]43C)[C@@H]2C1", "note": "[TX63477]", "IC50": 3.3}, {"smiles": "COCc1nnc([C@]23CCC(C)(C)C[C@H]2[C@H]2C(=O)C=C4[C@@]5(C)C=C(C#N)C(=O)C(C)(C)[C@@H]5CC[C@@]4(C)[C@]2(C)CC3)o1", "note": "[TX63478]", "IC50": 1.8}, {"smiles": "CC1(C)CC[C@]2(c3nnco3)CC[C@]3(C)[C@H](C(=O)C=C4[C@@]5(C)C=C(C#N)C(=O)C(C)(C)[C@@H]5CC[C@]43C)[C@@H]2C1", "note": "[TX63479]", "IC50": 1.1}, {"smiles": "Cc1noc([C@]23CCC(C)(C)C[C@H]2[C@H]2C(=O)C=C4[C@@]5(C)C=C(C#N)C(=O)C(C)(C)[C@@H]5CC[C@@]4(C)[C@]2(C)CC3)n1", "note": "[TX63501]", "IC50": 1}, {"smiles": "Cc1nnc(C[C@]23CCC(C)(C)C[C@H]2[C@H]2C(=O)C=C4[C@@]5(C)C=C(C#N)C(=O)C(C)(C)[C@@H]5CC[C@@]4(C)[C@]2(C)CC3)o1", "note": "[TX63593]", "IC50": 1.7}]}]}
